# Experimental data reported in patent US11141452B2, “Bifunctional compounds for relief of pain comprising an opioid receptor agonist moiety and a NK1 receptor antagonist moiety and methods for treating pain” (THE ARIZONA BOARD OF REGENTS ON BEHALF OF THE UNIVERSITY OF …, priority 2014, dated 2021).
# Values joined by “and” are separate entries in the source; they are usually repeats but may differ in a detail not shown here. Identical values can stand only once. Non-standard residues stand in square brackets, D forms with d. Residues, ends and D or L forms follow the SMILES beside them. *: point of attachment. NH(3,5-(CF3)2-benzyl) = FC(F)(F)c1cc(CN*)cc(C(F)(F)F)c1; Dmt = Cc1cc(O)cc(C)c1C[C@H](N)C(=O)O
# Columns and labels:
# MOR [1] = assay: Radioligand binding assay at μ opioid receptor; conditions: for Log[IC50±] (μ): log IC50 ± error
# Protocol: (§1) Binding affinities of these ligands were measured on radioligand binding assays. […] ([43]).
# DOR = DOR (Homo sapiens, UniProt P41143); assay: Radioligand binding assay at δ opioid receptor; conditions: for Ki: Ki^δ (nM)
# Protocol: as §1
# hNK1 = molecular target: T1, hNK1 (Homo sapiens, UniProt P25103); assay: hNK1/CHO cell membrane radioligand binding assay ([3H]SP); conditions: for Ki: Ki^hNK1 (nM), hNK1/CHO membranes, [3H]SP; for Ki^hNK1/Ki^rNK1: ratio human/rat NK1
# T1 construct: expressed in transfected cells; host or cells: CHO
# MOR [2] = assay: Guinea pig isolated ileum (GPI) functional assay; format: cell-based
# NK1R = molecular target: T2, NK1R (Cavia porcellus, UniProt P30547); assay: GPI/LMMP functional assay at NK1R (agonist and antagonist testing); format: cell-based, guinea pig; conditions: agonist activity at the concentration in the cell
# T2 construct: The longitudinal muscle with myenteric plexus (LMMP) was carefully separated from the circular muscle; from tissue; host or cells: guinea pig ileum longitudinal muscle with myenteric plexus
# T2 sequence (P30547 whole entry): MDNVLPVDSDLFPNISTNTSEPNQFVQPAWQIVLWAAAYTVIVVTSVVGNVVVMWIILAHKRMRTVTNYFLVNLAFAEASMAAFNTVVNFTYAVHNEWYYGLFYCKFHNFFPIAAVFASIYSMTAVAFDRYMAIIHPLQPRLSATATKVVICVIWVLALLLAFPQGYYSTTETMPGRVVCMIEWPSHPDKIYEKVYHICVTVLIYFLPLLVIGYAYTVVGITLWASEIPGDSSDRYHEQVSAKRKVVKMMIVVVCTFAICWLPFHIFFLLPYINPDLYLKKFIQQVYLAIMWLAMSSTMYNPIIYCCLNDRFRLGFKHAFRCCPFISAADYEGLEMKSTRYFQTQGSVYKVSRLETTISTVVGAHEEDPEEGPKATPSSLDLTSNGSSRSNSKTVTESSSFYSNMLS
# T1 sequence (P25103 whole entry): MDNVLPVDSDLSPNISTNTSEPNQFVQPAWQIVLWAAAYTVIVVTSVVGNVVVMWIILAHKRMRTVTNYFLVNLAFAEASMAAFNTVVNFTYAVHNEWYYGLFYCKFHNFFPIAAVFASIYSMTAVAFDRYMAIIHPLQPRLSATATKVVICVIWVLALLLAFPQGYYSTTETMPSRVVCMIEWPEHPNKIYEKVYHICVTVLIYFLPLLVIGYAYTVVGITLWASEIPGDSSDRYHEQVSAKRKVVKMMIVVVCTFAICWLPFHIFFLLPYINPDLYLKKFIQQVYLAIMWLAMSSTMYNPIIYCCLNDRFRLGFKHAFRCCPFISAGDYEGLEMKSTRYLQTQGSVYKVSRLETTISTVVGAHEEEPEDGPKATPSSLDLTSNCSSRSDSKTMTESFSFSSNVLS
# Chain of DOR (P41143 whole entry): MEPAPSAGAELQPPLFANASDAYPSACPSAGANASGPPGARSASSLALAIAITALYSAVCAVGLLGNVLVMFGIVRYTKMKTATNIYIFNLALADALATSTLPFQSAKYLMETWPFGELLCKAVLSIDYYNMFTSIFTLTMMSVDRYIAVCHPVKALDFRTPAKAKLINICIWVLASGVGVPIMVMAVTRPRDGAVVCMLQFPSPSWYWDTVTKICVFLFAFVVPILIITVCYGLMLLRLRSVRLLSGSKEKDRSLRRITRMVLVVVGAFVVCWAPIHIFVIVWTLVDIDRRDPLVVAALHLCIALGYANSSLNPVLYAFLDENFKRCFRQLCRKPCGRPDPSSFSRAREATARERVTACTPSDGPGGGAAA
SMILES,Ki (MOR [1]),Log[IC50±] (μ) (MOR [1]),IC50 (DOR),Ki (DOR),Ki^hNK1/Ki^rNK1 (hNK1),further results
CC(C)C[C@H](NC(=O)[C@@H]1CCCN1C(=O)[C@@H](CCC(N)=O)NC(=O)[C@H](Cc1ccccc1)NC(=O)CNC(=O)[C@@H](C)NC(=O)[C@@H](N)Cc1ccc(O)cc1)C(=O)N[C@@H](Cc1c[nH]c2ccccc12)C(=O)NCc1cc(C(F)(F)F)cc(C(F)(F)F)c1 [AKG103],120 nM and 116 nM,−6.57 ± 0.05,155 nM,72 nM,,Ki (hNK1): 2.1 nM
CSCC[C@H](NC(=O)[C@H](Cc1ccccc1)N(C)C(=O)CNC(=O)[C@@H](C)NC(=O)[C@@H](N)Cc1ccc(O)cc1)C(=O)N1CCC[C@H]1C(=O)N[C@@H](CC(C)C)C(=O)N[C@@H](Cc1c[nH]c2ccccc12)C(=O)NCc1cc(C(F)(F)F)cc(C(F)(F)F)c1 [AKG106],,,,,1/7,
CSCC[C@H](NC(=O)[C@H](Cc1ccccc1)N(C)C(=O)CNC(=O)[C@@H](C)NC(=O)[C@@H](N)Cc1c(C)cc(O)cc1C)C(=O)N1CCC[C@H]1C(=O)N[C@@H](CC(C)C)C(=O)N[C@@H](Cc1c[nH]c2ccccc12)C(=O)NCc1cc(C(F)(F)F)cc(C(F)(F)F)c1 [AKG107],,,,,1/7,
"Cc1cc(O)cc(C)c1C[C@H](N)C(=O)N[C@H](C)C(=O)N[C@@H](Cc1ccccc1)C(=O)NCC(=O)N[C@@H](Cc1ccc(O)cc1)C(=O)N1CCC[C@H]1C(=O)N[C@@H](CC(C)C)C(=O)N[C@@H](Cc1c[nH]c2ccccc12)C(=O)NCc1cc(C(F)(F)F)cc(C(F)(F)F)c1 [AKG118] (H-[Dmt][dA]FGYPLW-{NH(3,5-(CF3)2-benzyl)})",1 nM,−8.65 ± 0.12,,,1/11,Ki^μ/Ki^δ (MOR [1]; ratio of binding affinities MOR/DOR): 1/3
"CC(C)C[C@H](NC(=O)[C@@H]1CCCN1C(=O)CCNC(=O)[C@H](Cc1ccccc1)N(C)C(=O)CNC(=O)[C@@H](C)NC(=O)[C@@H](N)Cc1ccc(O)cc1)C(=O)N[C@@H](Cc1c[nH]c2ccccc12)C(=O)NCc1cc(C(F)(F)F)cc(C(F)(F)F)c1 [AKG119, H-Tyr-D-Ala-Gly-NMePhe-β-Ala-Pro-Leu-Trp-NH-Bn(3′,5′-(CF3)2)]",8 nM,−7.76 ± 0.11,,,1/32,"GPI/MVD IC50 ratio (MOR [2]): 10/1; IC50 (MOR [2]; agonist activity, electrically stimulated tissue, read-out: GPI (MOR) IC50): 365 ± 186 nM; GPI/LMMP (NK1R) Agonist (NK1R): None at 100 nM"
CC(C)C[C@H](NC(=O)[C@@H]1CCCN1C(=O)[C@H](CCC(N)=O)NC(=O)[C@H](Cc1ccccc1)N(C)C(=O)CNC(=O)[C@@H](C)NC(=O)[C@@H](N)Cc1ccc(O)cc1)C(=O)N[C@@H](Cc1c[nH]c2ccccc12)C(=O)NCc1cc(C(F)(F)F)cc(C(F)(F)F)c1 [AKG129],7 nM,−7.84 ± 0.11,,,,
Cc1cc(O)cc(C)c1C[C@H](N)C(=O)N[C@H](C)C(=O)NCC(=O)N(C)[C@@H](Cc1ccccc1)C(=O)N[C@@H](CCC(N)=O)C(=O)N1CCC[C@H]1C(=O)N[C@@H](CC(C)C)C(=O)N[C@@H](Cc1c[nH]c2ccccc12)C(=O)NCc1cc(C(F)(F)F)cc(C(F)(F)F)c1 [AKG141],,,,,1/10,
CC(C)C[C@H](NC(=O)[C@@H]1CCCN1C(=O)[C@H](CCC(N)=O)NC(=O)[C@H](Cc1ccc(F)cc1)NC(=O)CNC(=O)[C@@H](C)NC(=O)[C@@H](N)Cc1ccc(O)cc1)C(=O)N[C@@H](Cc1c[nH]c2ccccc12)C(=O)NCc1cc(C(F)(F)F)cc(C(F)(F)F)c1 [AKG142],8 nM,−7.67 ± 0.07,3.39 nM,2 nM,,
CC(C)C[C@H](NC(=O)[C@@H]1CCCN1C(=O)[C@H](CCC(N)=O)NC(=O)[C@H](Cc1ccc(F)cc1)N(C)C(=O)CNC(=O)[C@@H](C)NC(=O)[C@@H](N)Cc1ccc(O)cc1)C(=O)N[C@@H](Cc1c[nH]c2ccccc12)C(=O)NCc1cc(C(F)(F)F)cc(C(F)(F)F)c1 [AKG143],2 nM,−8.35 ± 0.07,1.45 nM,0.7 nM,,Ki (hNK1): 3.2 nM
Cc1cc(O)cc(C)c1C[C@H](N)C(=O)N[C@H](C)C(=O)NCC(=O)N(C)[C@@H](Cc1ccc(F)cc1)C(=O)N[C@@H](CCC(N)=O)C(=O)N1CCC[C@H]1C(=O)N[C@@H](CC(C)C)C(=O)N[C@@H](Cc1c[nH]c2ccccc12)C(=O)NCc1cc(C(F)(F)F)cc(C(F)(F)F)c1 [AKG144],0.5 nM,−8.94 ± 0.07,0.437 nM,0.2 nM,,
